The test system of assay [1] is TasA-mCherry. The assay is classed as cell-based, Bacillus subtilis. Conditions: 6 μM. On the procedure:
Fluorescence microscopy. For fluorescence microscopy analysis, 1 ml of culture was harvested. The cells were washed with PBS buffer and suspended in 50 μl of PBS buffer. Cover slides were pretreated with poly L-lysine (Sigma). Samples were examined using an Olympus workstation BX61 microscope. Images were taken using the automated software program SimplePCI and analyzed with program MetaMorph (Universal Imaging Corporation).
The cells were grown to stationary phase with shaking in biofilm-inducing medium in the presence or absence of D-tyrosine (6 μM). […] In contrast, when the cells were washed by centrifugation, resuspended and then examined by fluorescence microscopy, untreated cells (which were often in clumps) were seen to be intensely decorated with TasA-mCherry. […] The localization of unmodified TasA protein was also analyzed by transmission electron microscopy using gold-labeled anti-TasA antibodies. […] 24-hour-old cultures were incubated without (images 1 and 2) or with (images 3-6) D-tyrosine (0.1 mM) for an additional 12 hours. TasA fibers were stained by immunogold labeling using anti-TasA antibodies, and visualized by transmission electron microscopy as described in the Examples. […] Filled arrows indicate fiber bundles; open arrows indicate individual fibers. The scale bar is 500 nm. The scale bar in the enlargements of images 2, 4 and 6 is 100 nm. […]

Assay [2] deals with P.a. Harvard PA14. In words: Biofilm (colony architecture) formation on defined M63 medium. The assay is classed as cell-based, Pseudomonas aeruginosa. Conditions: 500 μM. From the text: Similarly to Bacillus subtilis, Pseudomonas aeruginosa forms a complex architecture on defined medium. These complex structures require the proper formation and assembly of the extra-cellular matrix. […] For these experiments, the organism/strain was P.a. Harvard PA14, the culture medium was M63 and the cell inoculation was at 1.5×10^9 cfu.

The test system of assay [3] is S. aureus (strain SCO1). As to the kind of experiment: Biofilm formation on polystyrene, crystal violet staining. The class given is cell-based, Staphylococcus aureus. The procedure: Crystal violet staining Crystal violet staining was done as described previously (O'Toole et al., Mol. […] Wells were stained with 500 μl of 1.0% Crystal-violet dye, rinsed twice with 2 ml double-distilled water and thoroughly dried.
The effect of D-amino acids on biofilm formation by other bacteria was examined. The pathogenic bacterium Staphylococcus aureus forms biofilms on plastic surfaces (Otto, Curr. Top. Microbiol. Immunol. 322:207 (2008)), which can be detected by washing away unbound cells and staining the bound cells with crystal violet. […] Additionally added to the wells were no amino acids (untreated), D-tyrosine (50 μM) or the D-amino acid mixture ([…] each). Cells bound to the polystyrene were visualized by washing away unbound cells and then staining with crystal violet.
For experiments reported in Table 1, the organism/strain was S.a. Harvard SCO1, the culture medium was TSB and the cell inoculation was at 2×10^9 cfu. For experiments reported in Table 2, the organism/strain was […], the culture medium was M63 and the cell inoculation was at 1.5×10^9 cfu. Biofilm was visualized using the crystal violet method. The data is shown below in Tables 1 and 2:
For experiments reported in Tables 3 and 4, the organism/strain was S.a. Harvard SCO1, the culture medium was TSB and the cell inoculation was at 2×10^9 cfu. Biofilm was visualized using the crystal violet method.

For assay [4], the system named is TasA fibers. In words: Cell association of TasA fibers by immunogold transmission electron microscopy. The assay is classed as cell-based, Bacillus subtilis. The settings on record: 0.1 mM, 24-hour-old Δeps cultures treated for 12 hours. On the procedure:
Transmission electron microscopy and immunolabeling. Samples were diluted with distilled water and adsorbed onto a carbon or formvar/carbon coated grid. The grid surface was made hydrophilic prior to use with glow discharge in a vacuum evaporator. Once the specimen was adsorbed onto the film surface, the excess sample was blotted off on a filter paper (Whatman #1) and the grid was floated on 5 μl of stain solution (1-2% aqueous uranyl acetate) for a few minutes and then blotted off. The samples were dried and examined in a Tecnai™ G^2 Spirit BioTWIN microscope at an accelerating voltage of 80 KV. Images were taken with an AMT 2k CCD camera. […]
The cells were grown to stationary phase with shaking in biofilm-inducing medium in the presence or absence of D-tyrosine (6 μM). […] In contrast, when the cells were washed by centrifugation, resuspended and then examined by fluorescence microscopy, untreated cells (which were often in clumps) were seen to be intensely decorated with TasA-mCherry. […] The localization of unmodified TasA protein was also analyzed by transmission electron microscopy using gold-labeled anti-TasA antibodies. […]

The subject of assay [5] is Bacillus subtilis NCIB3610. In words: Colony biofilm formation on solid MSgg medium. The class given is cell-based. Conditions: 3 μM, 4 days. On the procedure:
Colony and pellicle formation. For colony formation on solid medium, cells were first grown to exponential growth phase in LB broth and 3 μl of culture were spotted onto solid MSgg medium containing 1.5% Bacto agar. The plates were incubated at 23° C. For pellicle formation in liquid medium, cells were grown to exponential phase and 6 μl of culture were mixed with 6 ml of medium in a 12-well plate (VWR). Plates were incubated at 23° C. Images of colonies and pellicles were taken using a SPOT camera (Diagnostic Instruments, USA).

Assay [6] concerns Pseudomonas aeruginosa. In words: Attached single cells in well plate, Syto-9 staining. The class given is cell-based. On the procedure: An alternative method to observe biofilm formation on a 6 well plate with or without D-amino acids and using Syto-9 staining was as follows: Pseudomonas aeruginosa biofilms were washed twice with PBS and then fixed for at least an hour in 5% Glutaraldehyde in PBS. The fixed biofilms were then rinsed once again with PBS and soaked in 0.1% v/v Triton X-100 in PBS (PBST) for 15 minutes. The solution was exchanged with 0.1 nM […] (Invitrogen) in cold PBST and gently rocked in the dark for at least 15 minutes. Fluorescence images of the biofilms were captured with a Leica DMRX compound microscope using a Xe lamp and a K3 Leica filtercube. […] The amount of attached single cells was quantified using image J. The decrease in the amount of cells attached to the epoxy surfaces soaked with D-aa compared with the L-aa control was substantially more.

Where [7] appears, read: Staphylococcus aureus, 24 h, read-out: % Inhibition relative to control (0%, <50%, 50-90%, >90%).

For `N[C@H](Cc1ccc(O)cc1)C(=O)O` [D-tyrosine], the “total accumulation of TasA-mCherry (FIG. 3B)” value in assay [1] (grown to stationary phase with shaking) was “little or no effect”. Also, the “Cell decoration with TasA-mCherry, fluorescence microscopy of washed cells” value in assay [1] (grown to stationary phase, washed and resuspended) is reported as “only low levels of fluorescence”. Further, the “Biofilm formation on defined medium (FIG. 20)” value in assay [2] is “inhibited biofilm formation”. In addition, in assay [3] (50 μM, 12-well polystyrene, 24 hours at 37° C., TSB with glucose (0.5%) and NaCl (3%)), the “Prevention of biofilm formation (FIG. 2E)” value is “highly effective in preventing biofilm formation”. In assay [3] (setting [7]), the inhibition at 0.1 µM was 0%, the inhibition at 10 µM was determined as 0%, the inhibition at 100 µM was over 90% and the inhibition at 500 µM was over 90%. For the same compound, in assay [4], the “Cell association of TasA fibers (FIG. 3D)” value is listed as “largely undecorated with TasA fibers”. Further, the “Biofilm formation on solid MSgg medium (FIG. 6)” value in assay [5] is recorded as “inhibited biofilm formation”. Further, in assay [6] (Pseudomonas aeruginosa, 12 h, read-out: % Inhibition relative to control (0%, <50%, 50-90%, >90%)), the inhibition at 50 µM is over 90%. The “number of cells attached to the bottom of the biofilm plate (FIG. 21)” value in assay [6] (concentration not given) is reported as “dramatic decrease in the number of cells attached”.

In general, inhibition refers to the share of the control response that was lost under treatment.

For the origin of these results see patent publication US20130059096A1, “METHODS AND COATINGS FOR TREATING BIOFILMS” (President and Fellows of Harvard College, priority 2010, published 2013).
